# Test results: ChEMBL document CHEMBL5214948, “Boronic Acid: A Novel Pharmacophore Targeting Src Homology 2 (SH2) Domain of STAT3” (J Med Chem, 2022)
# Calls of active or inactive are those of the source. No cut-off for these calls is given here.
# Columns and labels:
# AGS [1] = assay: Antiproliferative activity against human AGS cells assessed as reduction in cell viability at 1 to 3 uM incubated for 72 hrs by Edu incorporation assay; format: functional, cell-based; settings: dose 1-3 µM
# MGC-803 [2] = assay: Antitumor activity against human MGC-803 cells xenografted in BALB/c nude mouse assessed as reduction in Bcl-xL expression at 15 mg/kg, ip measured every day for 20 days by immunohistochemical analysis; format: functional, organism-based; settings: time 20.0 day
# MGC-803 [3] = assay: Antitumor activity against human MGC-803 cells xenografted in BALB/c nude mouse assessed as tumor growth inhibition at 15 mg/kg, ip measured every day for 20 days; format: functional; parameters: scale not given: the % may be the effect or the level left; settings: time 20 day
# [4] = biological target: T1, Signal transducer and activator of transcription 3 (Homo sapiens, UniProt P40763); assay: Inhibition of STAT3 transcriptional activity transfected in HEK293T cells at 3 to 5 uM incubated for 24 hrs by dual-ludferase reporter gene assay; format: cell-based; settings: dose 3-5 µM
# Target sequence in this assay (P40763 whole entry): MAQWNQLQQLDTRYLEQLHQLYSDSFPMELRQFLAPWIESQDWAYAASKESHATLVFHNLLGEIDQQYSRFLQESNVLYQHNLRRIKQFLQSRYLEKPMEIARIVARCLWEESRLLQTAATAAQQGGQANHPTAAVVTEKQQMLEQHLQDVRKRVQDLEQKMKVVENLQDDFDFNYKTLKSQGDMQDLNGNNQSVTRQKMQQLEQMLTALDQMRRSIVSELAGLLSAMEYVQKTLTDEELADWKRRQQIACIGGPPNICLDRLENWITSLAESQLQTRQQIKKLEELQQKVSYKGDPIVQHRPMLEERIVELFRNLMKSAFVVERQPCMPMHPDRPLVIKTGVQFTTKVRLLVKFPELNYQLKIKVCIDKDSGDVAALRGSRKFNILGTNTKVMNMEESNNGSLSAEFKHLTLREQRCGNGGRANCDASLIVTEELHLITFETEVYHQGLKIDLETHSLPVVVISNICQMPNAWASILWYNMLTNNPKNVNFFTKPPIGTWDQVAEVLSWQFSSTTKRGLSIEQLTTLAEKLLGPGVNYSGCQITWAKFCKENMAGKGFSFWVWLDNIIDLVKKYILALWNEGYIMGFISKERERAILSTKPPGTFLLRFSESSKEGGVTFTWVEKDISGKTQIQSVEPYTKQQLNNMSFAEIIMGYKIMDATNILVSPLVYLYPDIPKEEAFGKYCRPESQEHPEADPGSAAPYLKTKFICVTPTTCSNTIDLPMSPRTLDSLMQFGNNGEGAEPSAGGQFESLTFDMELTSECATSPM
# [5] = Clearance in ICR mouse at 5 mg/kg, iv measured upto 24 hrs by LC-MS/MS analysis; format: ADME, organism-based; settings: in vivo
# MGC-803 [6] = assay: Antiproliferative activity against human MGC-803 cells assessed as reduction in cell viability measured after 72 hrs by CCK-8 assay; format: functional, cell-based; settings: MGC-803, 72 h
# [7] = Cmax in ICR mouse at 5 mg/kg, iv measured upto 24 hrs by LC-MS/MS analysis; format: ADME, organism-based; parameters: time < 24 hrs, dose 5 mg/kg, route iv; settings: in vivo
# MGC-803 [8] = assay: Antitumor activity against human MGC-803 cells xenografted in BALB/c nude mouse assessed as reduction in Ki67 expression at 5 mg/kg, ip measured every day for 20 days by immunohistochemical analysis; format: functional, organism-based; settings: time 20.0 day
# [9] = Toxicity in nude BALB/c nude mouse xenografted with human MGC-803 cells assessed as morphological changes in kidney at 5 to 15 mg/kg, ip measured every day for 20 days by H and E staining based assay; format: organism-based; settings: in vivo, 480 h, time 20 day
# [10] = Toxicity in nude BALB/c nude mouse xenografted with human MGC-803 cells assessed as morphological changes in liver at 5 to 15 mg/kg, ip measured every day for 20 days by H and E staining based assay; format: organism-based; settings: in vivo, 480 h, time 20 day
# MGC-803 [11] = assay: Antiproliferative activity against human MGC-803 cells assessed as reduction in cell viability at 3 to 5 uM incubated for 72 hrs by Edu incorporation assay; format: functional, cell-based; settings: dose 3-5 µM
# [12] = biological target: T1, Signal transducer and activator of transcription 3; assay: Inhibition of STAT3 phosphorylation at Tyr705 residue in human AGS cells incubated for 24 hrs by Western blot analysis; format: cell-based; settings: dose 1-3 µM, DDE = dose-dependent effect
# Target sequence in this assay (P40763 whole entry): as above
# MGC-803 [13] = assay: Antitumor activity against human MGC-803 cells xenografted in BALB/c nude mouse assessed as reduction in Bcl-xL expression at 5 mg/kg, ip measured every day for 20 days by immunohistochemical analysis; format: functional, organism-based; settings: time 20.0 day
# MGC-803 [14] = assay: Antitumor activity against human MGC-803 cells xenografted in BALB/c nude mouse assessed as reduction in tumor cells at 15 mg/kg, ip measured every day for 20 days by immunohistochemical analysis; format: functional, organism-based; settings: time 20.0 day
# [15] = Half life in ICR mouse at 5 mg/kg, iv measured upto 24 hrs by LC-MS/MS analysis; format: ADME, organism-based; settings: in vivo
# [16] = biological target: T1, Signal transducer and activator of transcription 3; assay: Inhibition of STAT3 at Y705 residue phosphorylation at in human MGC-803 cells at 5 uM pretreated for 48 hrs followed by compound washout and measured after 72 hrs by immunoblotting analysis
# Target sequence in this assay (P40763 whole entry, looked up): as the sequence (P40763 whole entry) above
# MGC-803 [17] = assay: Antitumor activity against human MGC-803 cells xenografted in BALB/c nude mouse assessed as reduction in c-myc expression at 15 mg/kg, ip measured every day for 20 days by immunohistochemical analysis; format: functional, organism-based; settings: time 20.0 day
# MGC-803 [18] = assay: Inhibition of colony formation in human MGC-803 cells at 1 uM incubated for 10 to 15 days by crystal violet staining based assay; format: functional, cell-based; settings: time 10-15 day
# [19] = biological target: T1, Signal transducer and activator of transcription 3; assay: Inhibition of STAT3 transcriptional activity in human MGC-803 cells assessed as downregulation of C-myc protein expression at 3 to 5 uM incubated for 24 hrs by Western blot analysis; format: cell-based; settings: dose 3-5 µM
# Target sequence in this assay (P40763 whole entry): as above
# AGS [20] = assay: Inhibition of cell invasion in human AGS cells measured after 24 hrs by crystal violet staining based imaging transwell assay; format: functional; settings: dose 1-3 µM, DDE = dose-dependent effect
# MGC-803 [21] = assay: Antitumor activity against human MGC-803 cells xenografted in BALB/c nude mouse assessed as reduction in tumor progression at 15 mg/kg, ip measured every day for 20 days by immunohistochemical analysis; format: functional, organism-based; settings: time 20.0 day
# MGC-803 [22] = assay: Antitumor activity against human MGC-803 cells xenografted in BALB/c nude mouse assessed as reduction in tumor progression at 5 mg/kg, ip measured every day for 20 days by immunohistochemical analysis; format: functional, organism-based; settings: time 20.0 day
# in vivo [23] = format: ADME, organism-based; settings: ICR, mouse, iv, 5 mg/kg
# [24] = biological target: T1, Signal transducer and activator of transcription 3; assay: Binding affinity to full length wild type STAT3-SH2 domain (unknown origin) in human MGC-803 cells assessed as thermal stabilization of protein at 37 to 53 degreeC at 5 uM incubated for 3 hrs by cellular thermal shift assay; format: cell-based
# Target sequence in this assay (P40763 whole entry): as above
# in vivo [25] = format: ADME, organism-based; settings: ICR, mouse, iv, 5 mg/kg; remark: listed apart in the source
# MGC-803 [26] = assay: Inhibition of cell migration in human MGC-803 cells assessed as cell migration incubated for 24 hrs by microscopy based by scratch wound healing assay; format: functional; settings: dose 1-3 µM, DDE = dose-dependent effect
# [27] = biological target: T1, Signal transducer and activator of transcription 3; assay: Inhibition of STAT3 transcriptional activity in human AGS cells assessed as downregulation of Bcl-xL protein expression at 1 to 3 uM incubated for 24 hrs by Western blot analysis; format: cell-based; settings: dose 1-3 µM
# Target sequence in this assay (P40763 whole entry): as above
smiles,measurement,setting,value
CN(CC(=O)N(Cc1ccc(C2CCCCC2)cc1)c1ccc(B(O)O)cc1)S(=O)(=O)c1c(F)c(F)c(F)c(F)c1F,Activity,AGS [1],Active
same,Activity,MGC-803 [2],Active
same,Activity,MGC-803 [3],79.13%
same,inhibition,[4],Active
same,clearance,[5],176 mL/min/kg
same,IC50,MGC-803 [6],4.73 µM
same,Cmax,[7],1500 ng/mL
same,Activity,MGC-803 [8],Active
same,Activity,[9],Non-Toxic
same,Activity,[10],Non-Toxic
same,Activity,MGC-803 [11],Active
same,inhibition,[12],Dde
same,Activity,MGC-803 [13],Active
same,Activity,MGC-803 [14],Active
same,half-life,[15],1.25 h
same,inhibition,[16],Active
same,Activity,MGC-803 [17],Active
same,inhibition,MGC-803 [18],Active
same,inhibition,[19],Active
same,inhibition,AGS [20],Dde
same,Activity,MGC-803 [21],Active
same,Activity,MGC-803 [22],Active
same,AUC(0-inf) at 24 h,in vivo [23],490 ng·h/mL
same,Activity,[24],Active
same,AUC(0-t) at 24 h,in vivo [25],485 ng·h/mL
same,inhibition,MGC-803 [26],Dde
same,inhibition,[27],Active
